Target: T1, OX2R (Homo sapiens, UniProt O43614)
T1 construct: expressed in transfected cells; host or cells: CHO cells (membranes)
T1 sequence (O43614 1-444): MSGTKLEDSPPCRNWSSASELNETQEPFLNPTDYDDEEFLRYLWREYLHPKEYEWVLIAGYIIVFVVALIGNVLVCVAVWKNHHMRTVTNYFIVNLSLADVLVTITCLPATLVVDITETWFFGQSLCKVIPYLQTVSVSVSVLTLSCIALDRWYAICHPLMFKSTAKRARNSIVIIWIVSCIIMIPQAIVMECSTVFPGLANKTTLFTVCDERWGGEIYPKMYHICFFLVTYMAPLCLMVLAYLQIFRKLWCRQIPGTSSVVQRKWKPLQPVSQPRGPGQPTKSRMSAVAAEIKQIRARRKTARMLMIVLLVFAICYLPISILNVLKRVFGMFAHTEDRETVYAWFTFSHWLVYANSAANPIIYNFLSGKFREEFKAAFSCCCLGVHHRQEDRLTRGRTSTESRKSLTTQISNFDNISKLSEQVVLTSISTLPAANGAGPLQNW
Experiment: radioligand binding assay, membranes from CHO cells expressing the OX2 receptor
Conditions: CHO cell membranes
Description: The utility of the compounds in accordance with the present invention as orexin receptor OX1R and/or OX2R antagonists may be readily determined without undue experimentation by methodology well known in the art, including the “FLIPR Ca^2+ Flux Assay” (Okumura et al., Biochem. Biophys. Res. Comm. 280:976-981, 2001). In a typical experiment the OX1 and OX2 receptor antagonistic activity of the compounds of the present invention was determined in accordance with the following experimental method. For intracellular calcium measurements, Chinese hamster ovary (CHO) cells expressing the rat orexin-1 receptor or the human orexin-2 receptor, are grown in Iscove's modified DMEM containing 2 mM L-glutamine, […], 1% hypoxanthine-thymidine supplement, 100 U/ml penicillin, 100 ug/ml streptomycin and 10% heat-inactivated fetal calf serum (FCS). The cells are seeded at 20,000 cells/well into Becton-Dickinson black 384-well clear bottom sterile plates coated with poly-D-lysine. All reagents were from GIBCO-Invitrogen Corp. The seeded plates are incubated overnight at 37° C. and 5% CO2. Ala-6,12 human orexin-A as the agonist is prepared as a 1 mM stock solution in 1% bovine serum albumin (BSA) and diluted in assay buffer (HBSS containing 20 mM HEPES, 0.1% BSA and 2.5 mM probenecid, pH7.4) for use in the assay at a final concentration of 70 pM. Test compounds are prepared as 10 mM stock solution in DMSO, then diluted in 384-well plates, first in DMSO, then assay buffer. On the day of the assay, cells are washed 3 times with 100 ul assay buffer and then incubated for 60 min (37° C., 5% CO2) in 60 ul assay buffer containing 1 uM Fluo-4AM ester, 0.02% pluronic acid, and 1% BSA. The dye loading solution is then aspirated and cells are washed 3 times with 100 ul assay buffer. 30 ul of that same buffer is left in each well. Within the Fluorescent Imaging Plate Reader (FLIPR, Molecular Devices), test compounds are added to the plate in a volume of 25 ul, incubated for 5 min and finally 25 ul of agonist is added. Fluorescence is measured for each well at 1 second intervals for 5 minutes and the height of each fluorescence peak is compared to the height of the fluorescence peak induced by 70 pM Ala-6,12 orexin-A with buffer in place of antagonist. For each antagonist, IC50 value (the concentration of compound needed to inhibit 50% of the agonist response) is determined. Alternatively, compound potency can be assessed by a radioligand binding assay (described in Bergman et. al. Bioorg. Med. Chem. Lett. 2008, 18, 1425-1430) in which the inhibition constant (Ki) is determined in membranes prepared from CHO cells expressing either the OX1 or OX2 receptor. The intrinsic orexin receptor antagonist activity of a compound which may be used in the present invention may be determined by these assays.

Ki [nM]	SMILES
0.19	CNC(=O)[C@@H](c1ccccc1)N1CCc2nc(OC)c(OC)cc2[C@@H]1CCc1ccc(C(F)(F)F)cc1 [Compound 1-6, (2R)-2-[(5S)-2,3-dimethoxy-5-{-2-[4-(trifluoromethyl)phenyl]ethyl}-7,8-dihydro-1,6-naphthyridin-6(5H)-yl]-N-methyl-2-phenylethanamide]
0.26	CNC(=O)[C@@H](c1ccccc1)N1CCc2nc(OC)c(OC)cc2[C@@H]1CCc1ccc(Cl)cc1 [Compound 1-7, (2R)-2-[(5S)-5-[2-(4-chlorophenyl)-ethyl]-2,3-dimethoxy-7,8-dihydro-1,6-naphthyridin-6(5H)-yl]-N-methyl-2-phenylethanamide]
1	CNC(=O)[C@@H](c1ccccc1)N1CCc2nc(OC)c(OC)cc2[C@@H]1CCc1ccc(F)cc1F [Compound 1-8, (2R)-2-[(5S)-5-[2-(2,4-difluoro-phenyl)ethyl]-2,3-dimethoxy-7,8-dihydro-1,6-naphthyridin-6(5H)-yl]-N-methyl-2-phenylethanamide]
0.18	CNC(=O)[C@@H](c1ccccc1)N1CCc2nc(OC)c(OC)cc2[C@@H]1CCc1ccc(C)cc1 [Compound 1-9, (2R)-2-[(5S)-2,3-dimethoxy-5-[2-(4-methylphenyl)ethyl]-7,8-dihydro-1,6-naphthyridin-6(5H)-yl]-N-methyl-2-phenylethanamide]
0.17	CNC(=O)[C@@H](c1ccccc1)N1CCc2cc(OC)c(OC)nc2[C@@H]1CCc1ccc(C(F)(F)F)cc1 [Compound 1-10, (2R)-2-[(8S)-2,3-dimethoxy-8-{2-[4-(trifluoromethyl)phenyl]ethyl}-5,8-dihydro-1,7-naphthyridin-7(6H)-yl]-N-methyl-2-phenylethanamide]
0.44	CNC(=O)[C@@H](c1ccccc1)N1CCc2nc(OC)c(OC)nc2[C@@H]1CCc1ccc(C(F)(F)F)cc1 [Compound 1-11, (2R)-2-[(5S)-2,3-dimethoxy-5-{2-[4-(trifluoromethyl)phenyl]ethyl}-7,8-dihydropyrido[3,4-b]pyrazin-6(5H)-yl]-N-methyl-2-phenylethanamide]
